{"source": "patent US12467038B2", "about": "“Methods of culturing human pluripotent cells” (Hadasit Medical Research Services and Development Ltd., priority 2019, dated 2025)", "type_in_all_cases": "cell-based, human", "key": {"LN-hPSCs [1]": {"system": "LN-hPSCs", "assay": "Signaling pathways analysis, phase-contrast colony morphology", "protocol": "(§1) Signaling pathways analysis—hPSCs were cultured on LN111 for 2 days in complete medium, and then for additional 3-5 days in a medium+/−FGF2 in the presence of the following small molecules: PD032590 1 μM (Peprotech), LY294002 10 μM, SB431542 10 μM, CHIR99021 3 μM (all from Cayman Chemical, Michigan, USA), XAV939 2.5 μM (Peprotech), BMP4 50 ng/ml (Biogems-Peprotech).\nas §1, with “analysis-hPSCs” for “analysis—hPSCs”"}, "LN-hPSCs [2]": {"system": "LN-hPSCs", "assay": "Signaling pathways analysis, Real-Time PCR of marker expression", "protocol": "as §1\n(§2) Real Time PCR analysis—A relative gene expression quantitation assay was performed by amplification of 50 ng cDNA by Real Time PCR, using ABI Prism 7900HT Sequence Detection System (Applied Biosystems (ABI), Foster City, Calif.), specific TaqMan® Gene Expression Assays and TaqMan Fast Universal PCR master Mix. Human β-glucuronidase (gusB) or human β-actin (actB) were used as endogenous gene references. Data was analyzed using the RQ Manager Software v1.2 (ABI). For global expression analysis of pluripotency and differentiation associated genes, 200 ng cDNA were subjected to Real Time PCR amplification using Applied Biosystems® TaqMan® Human Stem Cell Pluripotency Array (Cat. No. 4385344), and Taqman Gene Expression Master Mix. Array data was analyzed using the DataAssist Software v2.0 (ABI).\nas §1, with “analysis-hPSCs” for “analysis—hPSCs”\nas §2, with “of 25-50” for “of 50”, “by Real-Time” for “by Real Time”, “and TaqMan®” for “and TaqMan”, “PCR Master Mix (All from Invitrogen).” for “PCR master Mix.”, “to Real-time” for “to Real Time”"}, "LN-hPSCs [3]": {"system": "LN-hPSCs", "assay": "Immunofluorescence staining after WNT activation", "conditions": "upon WNT activation with CHIR", "protocol": "as §1\nImmunofluorescence staining: 4-6 day hESC colonies were fixed with 4% paraformaldehyde for 20 min at RT, permeabilized and blocked with 0.2% Triton X100 (Sigma-Aldrich), 5% normal goat/donkey serum (Biological industries, Beit Haemek, Israel) in PBS for 45 min, and incubated 1 hour at RT with the following primary antibodies: mouse IgG2b anti-human Oct4 (1:50; Cat. No. SC5279, Santa Cruz Biotechnology Inc., USA), goat polyclonal IgG anti-human FGF5 (1:250; Cat. No. AF-237-NA, R&D Systems, Minneapolis, Minn., USA), Rabbit polyclonal IgG anti-GFP (1:250; Cat. No. A11122, Invitrogen), goat polyclonal IgG anti-Brachyury (1:150; Cat. No. AF-2085, R&D Systems), and goat polyclonal IgG anti-human OTX2 (1:50; Cat. No. AF-1979, R&D Systems). […]"}, "LN-hPSCs [4]": {"system": "LN-hPSCs", "assay": "FACS analysis of pluripotency cell-surface markers", "conditions": "basic medium supplemented with FGF2, XAV939 2.5 μM", "protocol": "Signaling pathways analysis—hPSCs were cultured on LN111 for 2 days in complete medium, and then for additional 3-5 days in a medium+/−FGF2 in the presence of the following small molecules: PD032590 1 μM (Peprotech), LY294002 10 μM, SB431542 10 μM, CHIR99021 3 μM (all from Cayman Chemical, Michigan, USA), XAV939 2.5 μM (Peprotech), BMP4 50 ng/ml (Biogems-Peprotech). FACS analysis—FACS analyses were performed using the following primary antibodies: mouse IgM anti-TRA-1-60 (1:100; mab4360, R&D), and mouse IgM anti-TRA-1-81 (1:100; mab4381, R&D), and Rat IgM anti-SSEA-3. Staining with respective isotype control antibodies (all from eBiosciences) served as controls. Detection of primary antibodies was performed using the following secondary antibodies: FITC-conjugated Polyclonal Goat Anti-Mouse Immunoglobulins (1:100; Dako, Glostrup, Denmark), APC-conjugated Goat anti-Mouse IgM/G (1:200; Cat. No. 1020-11, SouthernBiotech, Birmingham, Ala., USA), and APC-conjugated anti-Rat (1:200; eBioscience). FACS analysis was performed on a FACScalibur system (Becton-Dickinson, San Jose, Calif.) using the Cellquest software. A detailed FACS procedure is described elsewhere. FACS analysis—FACS analyses for pluripotency marker expression were performed using mouse anti-TRA-1-60 (1:100; mab4360, R&D), and mouse anti-TRA-1-81 (1:100; mab4381, R&D). […]"}, "hPSCs": {"system": "hPSCs", "assay": "Undifferentiated propagation and PGC differentiation of hPSCs on laminin", "conditions": "HES-1 hPSCs", "protocol": "LN-hPSCs were cultured on mouse LN111, 3-D Culture Matrix Laminin I (CULTREX, TREVIGEN, #3446-005-01, Gaithersburg, Md., USA). 0.175 ml diluted LN111 (1:14 to a coating concentration of 0.43 mg/ml) was used to coat a well of a 6-well culture dish, leaving a margin of 2-3 mm at the well edge (a final concentration of ˜8 microgram/cm^2). The coated dishes were incubated from 4 hours to 4 days, at 37° C., and washed with PBS before use. LN-hPSCs were cultured in a medium composed of DMEM/F12, B27 supplement (1:50), N2 supplement (1:100), 2 mM L-glutamine, 50 units/ml penicillin, 50 μg/ml streptomycin (all from Invitrogen), and supplemented daily with 20 ng/ml FGF2 (Peprotech). Cells were passaged every 5-6 days using 1.5 mg/ml collagenase type IV (Invitrogen). 5 μM ROCK inhibitor (Y-27632, Peprotech) was added for the first day after passaging.\nhPSCs were cultured on human recombinant LN521 (BIOLAMINA, Sundbyberg, Sweden). Coating of culture dishes with hrLN521 was performed according to the manufacturer's instructions (Coating concentration ˜0.45 microgram/cm^2). Cells were cultured in the same medium used for culturing LN-hPSCs, and passaged with collagenase type IV.\nPGC differentiation of hPSCs in suspension—LN-hPSCs and hPSCs cultured on hrLN-521 were dissociated into a single-cell suspension using TrypLE Select Enzyme (Invitrogen). Primed hPSCs were first dissociated from the MEF feeders by treatment with collagenase type IV, followed by dissociation into single cells by TrypLE Select Enzyme. 2000-3000 cells were seeded into a microwell of AggreWell™800 24-well plate (STEMCELL Technologies), and cultured as EBs in suspension, in PGCLC differentiation medium as described elsewhere (Irie et al., 2015)."}, "[5]": {"conditions": "medium depleted for FGF2, in the presence of the inhibitor, five days"}}, "data": [{"compound": "Cc1c[nH]c(-c2cnc(NCCNc3ccc(C#N)cn3)nc2-c2ccc(Cl)cc2Cl)n1", "note": "[CHIR, CHIR99021]", "values": [{"measurement": "LN-hPSC colony morphology", "setting": "LN-hPSCs [1]; 3 days in the presence of CHIR", "value": "appeared differentiated"}, {"measurement": "expression of PS and mesendodermal markers T, SOX17, and GSC", "setting": "LN-hPSCs [2]; 3 days in the presence of CHIR", "value": "up-regulation"}, {"measurement": "expression of core pluripotency TFs Oct4, Nanog and SOX2 as well as OTX2", "setting": "LN-hPSCs [2]; 3 days in the presence of CHIR", "value": "down-regulation"}, {"measurement": "expression of early ecdodermal marker PAX6", "setting": "LN-hPSCs [2]; 3 days in the presence of CHIR", "value": "down-regulated"}, {"measurement": "T-positive cells (immunostaining)", "setting": "LN-hPSCs [3]", "value": "expressed in the majority of the cells"}]}, {"compound": "O=C(NOC[C@H](O)CO)c1ccc(F)c(F)c1Nc1ccc(I)cc1F", "note": "[PD032590]", "values": [{"measurement": "differentiation as evidenced by changes in cell morphology", "setting": "LN-hPSCs [1]; [5]", "value": "Differentiation was observed"}, {"measurement": "Oct4 and Nanog expression levels", "setting": "LN-hPSCs [2]; [5]", "value": "significant down-regulation"}]}, {"compound": "NC(=O)c1ccc(-c2nc(-c3ccc4c(c3)OCO4)c(-c3ccccn3)[nH]2)cc1", "note": "[SB431542]", "values": [{"measurement": "colony morphology", "setting": "LN-hPSCs [1]; FGF2 depleted from the medium", "value": "the colonies including the margins differentiated"}, {"measurement": "colony morphology", "setting": "LN-hPSCs [1]; medium containing FGF2, 5 d", "value": "appeared differentiated"}, {"measurement": "Oct4 and Nanog expression levels", "setting": "LN-hPSCs [2]; FGF2 depleted from the medium", "value": "strongly reduced"}, {"measurement": "Nanog expression", "setting": "LN-hPSCs [2]; medium containing FGF2, 5 d", "value": "drastically reduced"}, {"measurement": "Oct4 levels", "setting": "LN-hPSCs [2]; medium containing FGF2, 5 d", "value": "moderately down-regulated"}]}, {"compound": "Oc1nc(-c2ccc(C(F)(F)F)cc2)nc2c1CSCC2", "note": "[XAV939]", "values": [{"measurement": "LN-hPSC colonies morphology", "setting": "LN-hPSCs [1]; basic medium supplemented with FGF2, XAV939 2.5 μM", "value": "did not affect"}, {"measurement": "percentages of cells expressing TRA-1-60", "setting": "LN-hPSCs [4]", "value": "did not affect"}]}, {"compound": "BMP4: BMP4 50 ng/ml (Biogems-Peprotech), conserved role in germ cell specification", "values": [{"measurement": "expression of early PGC TFs PRDM1 (BLIMP1) and TFAP2C", "setting": "LN-hPSCs [2]; BMP4 treatment", "value": "induced the expression"}, {"measurement": "expression of formative pluripotency TFs OTX2 and FOXD3", "setting": "LN-hPSCs [2]; BMP4 treatment", "value": "down-regulation"}]}, {"compound": "hrLN521: human recombinant LN521 (BIOLAMINA), coating of culture dishes", "values": [{"measurement": "competence to initiate germ cell specification", "setting": "hPSCs", "value": "competent to initiate germ cell specification"}, {"measurement": "undifferentiated propagation of hPSCs expressing markers of pluripotency and early post-implantation epiblast", "setting": "hPSCs", "value": "supports the undifferentiated propagation"}]}]}
